In brackets after ≈: the same amount, converted by molar mass. Activity calls are given as the source filed them. The calls are words filed in the database; no cut-off is given here.
How the values were obtained:
[1] = Inhibition of DprE1 (unknown origin) preincubated with FAD followed by compound addition and measured after 2 mins by fluorescence based microplate reader; design: species or system Bacteria
[2] = test system: Mycobacterium tuberculosis; experiment: Antibacterial activity against Mycobacterium tuberculosis H37Ra assessed as inhibition of bacterial growth at 50 uM incubated for 3 weeks by absorbance based microplate reader relative to control; assay type: functional; details: 504 h
[3] = test system: Mycobacterium tuberculosis; experiment: Antibacterial activity against Mycobacterium tuberculosis H37Ra assessed as inhibition of bacterial growth incubated for 1 weeks by absorbance based microplate reader; assay type: functional; details: 168 h
[4] = test system: Mycobacterium tuberculosis; experiment: Antibacterial activity against Mycobacterium tuberculosis H37Ra assessed as inhibition of bacterial growth at 10 uM incubated for 3 weeks by absorbance based microplate reader relative to control; assay type: functional; details: 504 h
[5] = test system: Mycobacterium tuberculosis; experiment: Antibacterial activity against Mycobacterium tuberculosis H37Rv assessed as inhibition of bacterial growth at 10 uM incubated for 3 weeks by absorbance based microplate reader relative to control; assay type: functional; details: 504 h
[6] = Cytotoxicity against human THP-1 cells assessed as cell viability at 200 uM incubated for 24 hrs by CCK-8 assay relative to control; assay type: toxicity, cell-based; details: read-out: Activity
[7] = Cytotoxicity against human THP-1 cells assessed as reduction in cell viability incubated for 24 hrs by CCK-8 assay; assay type: toxicity, cell-based
[8] = Selectivity index, ratio of CC50 for cytotoxicity against human THP-1 cells to MIC50 for antibacterial activity against Mycobacterium tuberculosis H37Ra; assay type: toxicity, cell-based; details: read-out: Selectivity Index
[9] = test system: Mycobacterium tuberculosis; experiment: Antibacterial activity against Mycobacterium tuberculosis H37Ra infected in PMA-differentiated human THP-1 cells assessed as reduction in colony forming units measured after 3 weeks by absorbance based assay; assay type: functional, organism-based; details: dose 10-100 µM
[10] = Binding affinity to recombinant DprE1 (unknown origin) assessed as dissociation constant incubated for 10 mins by MST analysis; design: species or system Bacteria
[11] = test system: Mycobacterium tuberculosis; experiment: Antibacterial activity against Mycobacterium tuberculosis H37Rv infected in PMA-differentiated human THP-1 cells assessed as reduction in colony forming units at 100 uM measured after 3 weeks by absorbance based assay; assay type: functional, organism-based
[12] = target: T1, Decaprenylphosphoryl-beta-D-ribose oxidase (Mycobacterium smegmatis (strain ATCC 700084 / mc(2)155), UniProt A0R607); experiment: Binding affinity to full length N-terminal 6his-tagged Mycobacterium smegmatis ATCC 607 DprE1 extracted from Escherichia coli BL21 assessed as dissociation constant incubated for 10 mins; design: species or system Mycolicibacterium smegmatis
T1 sequence (A0R607 whole entry): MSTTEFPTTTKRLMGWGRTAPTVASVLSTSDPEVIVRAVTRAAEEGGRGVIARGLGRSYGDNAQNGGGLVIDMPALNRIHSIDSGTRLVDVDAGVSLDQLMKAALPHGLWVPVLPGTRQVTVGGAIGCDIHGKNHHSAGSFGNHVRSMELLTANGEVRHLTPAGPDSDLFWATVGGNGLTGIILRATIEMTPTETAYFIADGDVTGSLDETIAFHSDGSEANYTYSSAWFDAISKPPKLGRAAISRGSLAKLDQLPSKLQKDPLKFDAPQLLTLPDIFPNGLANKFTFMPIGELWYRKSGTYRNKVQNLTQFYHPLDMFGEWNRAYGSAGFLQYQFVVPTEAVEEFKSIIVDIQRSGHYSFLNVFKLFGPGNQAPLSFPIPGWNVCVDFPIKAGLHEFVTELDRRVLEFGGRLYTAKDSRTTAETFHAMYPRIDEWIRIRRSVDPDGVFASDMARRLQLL

CC(=O)Nc1ccc(C(=O)NN/C=C2\C(=O)NC(=O)N(Cc3ccccc3)C2=O)cc1
IC50 [1]: 27.6 µM

O=C1NC(=O)N(CCc2ccccc2)C(=O)/C1=C/NNC(=O)c1cccnc1
IC50 [1]: 24.8 µM

C=CCN1C(=O)NC(=O)/C(=C\NNC(=O)c2cccc3ncccc23)C1=O
IC50 [1]: 11.1 µM

O=C1NC(=O)N(Cc2ccccc2)C(=O)/C1=C/NNC(=O)c1cccc(O)c1
IC50 [1]: 6.49 µM

CC(C)N1C(=O)NC(=O)/C(=C\NNC(=O)c2ccncc2)C1=O
IC50 [1]: 47.4 µM
inhibition at 50 µM [2]: 100%
MIC50 [3]: 1.75 µM (≈ 0.555 µg/mL)
inhibition at 10 µM [4]: 100%
inhibition at 10 µM [5]: 100%
viability at 24 h, 200 µM [6]: 100%
CC50 at 24 h [7]: > 200 µM
selectivity ratio [8]: > 114

O=C1NC(=O)N(Cc2ccccc2)C(=O)/C1=C/NNC(=O)c1cccc([N+](=O)[O-])c1
IC50 [1]: 42.5 µM

O=C1NC(=O)N(C2CC2)C(=O)/C1=C/NNC(=O)c1ccncc1
IC50 [1]: 20.3 µM
inhibition at 50 µM [2]: 100%
MIC50 [3]: 1.12 µM (≈ 0.353 µg/mL)
inhibition at 10 µM [4]: 100%
inhibition at 10 µM [5]: 100%
viability at 24 h, 200 µM [6]: 100%
CC50 at 24 h [7]: > 200 µM
selectivity ratio [8]: > 179
Activity [9]: Dose-dependent-effect
Kd [10]: 2.23 µM

C=CCN1C(=O)C(=CNNC(=O)c2ccncc2)C(=O)N(CC=C)C1=O
IC50 [1]: > 100 µM
inhibition at 50 µM [2]: 100%
MIC50 [3]: 2.89 µM (≈ 1.03 µg/mL)
inhibition at 10 µM [4]: 100%
inhibition at 10 µM [5]: 100%
viability at 24 h, 200 µM [6]: 100%
CC50 at 24 h [7]: > 200 µM
selectivity ratio [8]: > 69.2

COCC(=O)NN/C=C1\C(=O)NC(=O)N(Cc2ccccc2)C1=O
IC50 [1]: > 100 µM

O=C1NC(=O)N(Cc2ccccc2)C(=O)/C1=C/NNC(=O)c1cccc2ncccc12
IC50 [1]: 12.6 µM

C=CCN1C(=O)NC(=O)/C(=C\NNC(=O)c2ccnc3ccccc23)C1=O
IC50 [1]: 12.8 µM

C#CCN1C(=O)NC(=O)/C(=C\NNC(=O)c2ccncc2)C1=O
IC50 [1]: 12.7 µM
inhibition at 50 µM [2]: 100%
MIC50 [3]: 1.07 µM (≈ 0.336 µg/mL)
inhibition at 10 µM [4]: 100%
inhibition at 10 µM [5]: 100%
viability at 24 h, 200 µM [6]: 100%
CC50 at 24 h [7]: > 200 µM
selectivity ratio [8]: > 187
Activity [9]: Dose-dependent-effect; Best Bactericidal Effect Observed
Activity [11]: Active
Kd [10]: 0.068 µM

COc1ccc(C(=O)NN/C=C2\C(=O)NC(=O)N(Cc3ccccc3)C2=O)cc1
IC50 [1]: 3.03 µM

Cc1ccc(S(=O)(=O)C(=O)NN/C=C2\C(=O)NC(=O)N(Cc3ccccc3)C2=O)cc1
IC50 [1]: 62 µM

CC(=O)NC[C@H]1CN(c2ccc(N3CCOCC3)c(F)c2)C(=O)O1 [LINEZOLID]
MIC50 [3]: 1.67 µM (≈ 0.563 µg/mL)
selectivity ratio [8]: > 120

O=C1NC(=O)N(Cc2ccccc2)C(=O)/C1=C/NNC(=O)c1ccccc1
IC50 [1]: 7.25 µM

O=C1NC(=O)N(CCO)C(=O)/C1=C/NNC(=O)c1ccncc1
IC50 [1]: 45.7 µM
inhibition at 50 µM [2]: 100%
MIC50 [3]: 1.2 µM (≈ 0.384 µg/mL)
inhibition at 10 µM [4]: 100%
inhibition at 10 µM [5]: 100%
viability at 24 h, 200 µM [6]: 100%
CC50 at 24 h [7]: > 200 µM
selectivity ratio [8]: > 166
Activity [9]: Dose-dependent-effect
Kd [10]: 0.135 µM

CC(=O)NN/C=C1\C(=O)NC(=O)N(Cc2ccccc2)C1=O
IC50 [1]: > 100 µM

O=C1NC(=O)N(C2CC2)C(=O)/C1=C/NNC(=O)c1ccnc2ccccc12
IC50 [1]: 14.3 µM

O=C(CCl)NN/C=C1\C(=O)NC(=O)N(Cc2ccccc2)C1=O
IC50 [1]: > 100 µM

CC(C)(C)C(=O)NN/C=C1\C(=O)NC(=O)N(Cc2ccccc2)C1=O
IC50 [1]: > 100 µM

O=C(Cc1ccccc1)NN/C=C1\C(=O)NC(=O)N(Cc2ccccc2)C1=O
IC50 [1]: 12.3 µM

CCOCC(=O)NN/C=C1\C(=O)NC(=O)N(Cc2ccccc2)C1=O
IC50 [1]: > 100 µM

O=C1NC(=O)N(Cc2ccccc2)C(=O)/C1=C/NNC(=O)c1ccc(Cl)cc1
IC50 [1]: 23.9 µM

O=C1NC(=O)N(C2CCCCC2)C(=O)/C1=C/NNC(=O)c1cccnc1
IC50 [1]: 30.4 µM

O=C1NC(=O)N(Cc2ccccc2)C(=O)/C1=C/NNC(=O)c1cccc2ccccc12
IC50 [1]: 23.3 µM

C=CCN1C(=O)NC(=O)/C(=C\NNC(=O)c2ccncc2)C1=O
Kd [12]: 0.0025 µM
IC50 [1]: 54.6 µM
Kd [10]: 0.025 µM

CC[C@@H](C)N1C(=O)NC(=O)/C(=C\NNC(=O)c2ccccc2)C1=O
IC50 [1]: 13.4 µM

O=C1NC(=O)N(Cc2ccccc2)C(=O)/C1=C/NNC(=O)c1ccc(O)cc1
IC50 [1]: 8.56 µM

O=C(CO)NN/C=C1\C(=O)NC(=O)N(Cc2ccccc2)C1=O
IC50 [1]: > 100 µM

O=C1NC(=O)N(Cc2ccccc2)C(=O)/C1=C/NNC(=O)c1ccncc1
IC50 [1]: 10.2 µM
inhibition at 50 µM [2]: 100%
MIC50 [3]: 3.15 µM (≈ 1.15 µg/mL)
inhibition at 10 µM [4]: 100%
inhibition at 10 µM [5]: 100%
viability at 24 h, 200 µM [6]: 100%
CC50 at 24 h [7]: > 200 µM
selectivity ratio [8]: > 63.5

Nc1cccc(C(=O)NN/C=C2\C(=O)NC(=O)N(Cc3ccccc3)C2=O)c1
IC50 [1]: 4.36 µM

O=C1NC(=O)C(=CNNC(=O)c2ccncc2)C(=O)N1
IC50 [1]: > 100 µM
inhibition at 50 µM [2]: 100%
MIC50 [3]: 1.78 µM (≈ 0.491 µg/mL)
inhibition at 10 µM [4]: 100%
inhibition at 10 µM [5]: 100%
viability at 24 h, 200 µM [6]: 100%
CC50 at 24 h [7]: > 200 µM
selectivity ratio [8]: > 112

C=CCN1C(=O)NC(=O)/C(=C\NNC(=O)c2ccccc2)C1=O
IC50 [1]: 15.3 µM

CC(=O)Nc1cccc(C(=O)NN/C=C2\C(=O)NC(=O)N(Cc3ccccc3)C2=O)c1
IC50 [1]: 20.7 µM

CCN1C(=O)NC(=O)/C(=C\NNC(=O)c2ccncc2)C1=O
IC50 [1]: 52.3 µM
inhibition at 50 µM [2]: 100%
MIC50 [3]: 1.36 µM (≈ 0.414 µg/mL)
inhibition at 10 µM [4]: 100%
inhibition at 10 µM [5]: 100%
viability at 24 h, 200 µM [6]: 100%
CC50 at 24 h [7]: > 200 µM
selectivity ratio [8]: > 147

O=C1NC(=O)N(C2CCC2)C(=O)/C1=C/NNC(=O)c1ccncc1
IC50 [1]: 18.1 µM
inhibition at 50 µM [2]: 100%
MIC50 [3]: 2.37 µM (≈ 0.782 µg/mL)
inhibition at 10 µM [4]: 100%
inhibition at 10 µM [5]: 100%
viability at 24 h, 200 µM [6]: 100%
CC50 at 24 h [7]: > 200 µM
selectivity ratio [8]: > 84.2

O=C1NC(=O)N(c2ccccc2)C(=O)/C1=C/NNC(=O)c1cccnc1
IC50 [1]: 32.1 µM

CN1C(=O)NC(=O)/C(=C\NNC(=O)c2ccncc2)C1=O
IC50 [1]: 50 µM
inhibition at 50 µM [2]: 100%
MIC50 [3]: 1.4 µM (≈ 0.405 µg/mL)
inhibition at 10 µM [4]: 100%
inhibition at 10 µM [5]: 100%
viability at 24 h, 200 µM [6]: 100%
CC50 at 24 h [7]: > 200 µM
selectivity ratio [8]: > 143

O=C1NC(=O)N(C2CC2)C(=O)/C1=C/NNC(=O)c1cccc2ncccc12
IC50 [1]: 15.2 µM

O=C1NC(=O)N(C2CCCCC2)C(=O)/C1=C/NNC(=O)c1ccncc1
IC50 [1]: 16.7 µM
inhibition at 50 µM [2]: 100%
MIC50 [3]: 5.34 µM (≈ 1.91 µg/mL)
inhibition at 10 µM [4]: 100%
inhibition at 10 µM [5]: 100%
viability at 24 h, 200 µM [6]: 100%
CC50 at 24 h [7]: > 200 µM
selectivity ratio [8]: > 37.5

COc1cccc(C(=O)NN/C=C2\C(=O)NC(=O)N(Cc3ccccc3)C2=O)c1
IC50 [1]: 6.53 µM

O=C1NC(=O)N(Cc2ccccc2)C(=O)/C1=C/NNC(=O)c1cccnc1
IC50 [1]: 28.8 µM

O=C1NC(=O)N(Cc2ccccc2)C(=O)/C1=C/NNC(=O)c1ccc2ccccc2c1
IC50 [1]: 10.8 µM

O=C1NC(=O)N(Cc2ccccc2)C(=O)/C1=C/NNC(=O)c1ccnc2ccccc12
IC50 [1]: 13.8 µM

CC[C@@H](C)N1C(=O)NC(=O)/C(=C\NNC(=O)c2ccncc2)C1=O
IC50 [1]: 50.4 µM
inhibition at 50 µM [2]: 100%
MIC50 [3]: 2.5 µM (≈ 0.83 µg/mL)
inhibition at 10 µM [4]: 100%
inhibition at 10 µM [5]: 100%
viability at 24 h, 200 µM [6]: 100%
CC50 at 24 h [7]: > 200 µM
selectivity ratio [8]: > 68.1

O=C1NC(=O)N(Cc2ccccc2)C(=O)/C1=C/NNC(=O)c1cccc(Cl)c1
IC50 [1]: 24.3 µM
